Experimental data as given in PubChem BioAssay (NCI).
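Growth conditions: 96-well plates. Treatment: test compound, 48 hours, 5 concentrations. Analysis: linear interpolation between bracketing concentrations; unreached endpoints set to highest concentration. TGI: total growth inhibition.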

Assays:
Assay in all cases: inhibition of tumour cell growth, NCI panel, 48 h
SF-268 CNS = tested on: SF-268 CNS
HCT-116 colon = tested on: HCT-116 colon
NCI-H23 lung = tested on: NCI-H23 lung
DMS 114 small cell lung = tested on: DMS 114 small cell lung
NCI-H522 lung = tested on: NCI-H522 lung
NCI-H226 lung = tested on: NCI-H226 lung
786-0 renal = tested on: 786-0 renal
OVCAR-5 ovarian = tested on: OVCAR-5 ovarian
HOP-62 NSCLC = tested on: HOP-62 NSCLC
OVCAR-8 ovarian = tested on: OVCAR-8 ovarian
HOP-18 NSCLC = tested on: HOP-18 NSCLC
ACHN renal = tested on: ACHN renal
CCRF-CEM leukemia = tested on: CCRF-CEM leukemia
MALME-3M melanoma = tested on: MALME-3M melanoma
M19-MEL melanoma = tested on: M19-MEL melanoma
K-562 leukemia = tested on: K-562 leukemia
KM20L2 colon = tested on: KM20L2 colon
HOP-92 NSCLC = tested on: HOP-92 NSCLC
SN12C renal = tested on: SN12C renal
HL-60(TB) leukemia = tested on: HL-60(TB) leukemia
SNB-19 CNS = tested on: SNB-19 CNS
SNB-75 CNS = tested on: SNB-75 CNS
A549 NSCLC = tested on: A549 NSCLC
U251 CNS = tested on: U251 CNS
UO-31 renal = tested on: UO-31 renal
MOLT-4 leukemia = tested on: MOLT-4 leukemia
UACC-62 melanoma = tested on: UACC-62 melanoma
TK-10 renal = tested on: TK-10 renal
UACC-257 melanoma = tested on: UACC-257 melanoma
COLO 205 colon = tested on: COLO 205 colon
CAKI-1 renal = tested on: CAKI-1 renal
EKVX NSCLC = tested on: EKVX NSCLC
SK-MEL-5 melanoma = tested on: SK-MEL-5 melanoma
HT29 colon = tested on: HT29 colon
DMS 273 small cell lung = tested on: DMS 273 small cell lung
XF 498 CNS = tested on: XF 498 CNS
A498 renal = tested on: A498 renal
M14 melanoma = tested on: M14 melanoma
HCC-2998 colon = tested on: HCC-2998 colon
SK-MEL-2 melanoma = tested on: SK-MEL-2 melanoma
RPMI-8226 leukemia = tested on: RPMI-8226 leukemia
LXFL 529 NSCLC = tested on: LXFL 529 NSCLC
HCT-15 colon = tested on: HCT-15 colon
SF-295 CNS = tested on: SF-295 CNS
SF-539 CNS = tested on: SF-539 CNS
SW-620 colon = tested on: SW-620 colon
SK-OV-3 ovarian = tested on: SK-OV-3 ovarian
RXF 393 renal = tested on: RXF 393 renal
SK-MEL-28 melanoma = tested on: SK-MEL-28 melanoma
KM12 colon = tested on: KM12 colon
IGROV1 ovarian = tested on: IGROV1 ovarian
LOX IMVI melanoma = tested on: LOX IMVI melanoma
OVCAR-3 ovarian = tested on: OVCAR-3 ovarian
NCI-H460 lung = tested on: NCI-H460 lung
OVCAR-4 ovarian = tested on: OVCAR-4 ovarian
DLD-1 colon = tested on: DLD-1 colon
SR leukemia = tested on: SR leukemia

Measured: TGI

O=C(CC(=O)n1nc(-c2ccccc2)c(N=Nc2ccccc2Cl)c1-c1ccccc1)Nc1ccc(Cl)cc1
> 66.1 µM: RPMI-8226 leukemia
> 59.7 µM: LOX IMVI melanoma
> 83.4 µM: 786-0 renal
> 55.6 µM: U251 CNS
> 60.5 µM: HL-60(TB) leukemia
> 68.5 µM: CCRF-CEM leukemia
> 78.2 µM: NCI-H460 lung
> 74 µM: SW-620 colon
> 65.2 µM: DLD-1 colon
> 89.5 µM: HT29 colon
> 85.8 µM: K-562 leukemia
> 55.8 µM: HCT-116 colon
> 59.9 µM: HCT-15 colon
45.7 µM: M19-MEL melanoma
> 79.8 µM: A549 NSCLC
> 56.6 µM: DMS 114 small cell lung
> 64 µM: COLO 205 colon
> 100 µM: all other assays above
